# Data: US7417156B2, “Orally active, antimalarial, anticancer, artemisinin-derived trioxane dimers” (Johns Hopkins University, priority 2002, dated 2008)
# Key:
# Assay in all cases: NCI 60 cell line panel screen (SRB)
# Format in all cases: cell-based, human
# TK-10 = test system: TK-10
# UO-31 = test system: UO-31
# OVCAR-5 = test system: OVCAR-5
# MALME-3M = test system: MALME-3M
# COLO 205 = test system: COLO 205
# U251 = test system: U251
# NCI-H522 = test system: NCI-H522
# MDA-MB-435 = test system: MDA-MB-435
# SF-268 = test system: SF-268
# A549/ATCC = test system: A549/ATCC
# SK-MEL-2 = test system: SK-MEL-2
# M14 = test system: M14
# HS 578T = test system: HS 578T
# MCF7 = test system: MCF7
# CCRF-CEM = CCRF-CEM (Leukemia)
# KM12 = test system: KM12
compound,measurement,setting,value
"CC1CCC2C(C)C(CC(COC(=O)c3cc[n+]([O-])cc3)CC3OC4OC5(C)CCC6C(C)CCC(C3C)C46OO5)OC3OC4(C)CCC1C32OO4 (stereo not shown) [Compound 13, bis-trioxane primary alcohol isonicotinate N-oxide]",Log10GI50,"TK-10; Renal Cancer, TK-10",<−8.30
same,Log10LC50,"TK-10; TK-10 (Renal Cancer), LC50: PG=−50",−4.53 log10M
same,Log10TGI50,"TK-10; TK-10 (Renal Cancer), TGI: PG=0",−5.34 log10M
same,Log10GI50,"UO-31; Renal Cancer, UO-31",<−8.30
same,Log10LC50,"UO-31; UO-31 (Renal Cancer), LC50: PG=−50",>−4.30 log10M
same,Log10TGI50,"UO-31; UO-31 (Renal Cancer), TGI: PG=0",−5.10 log10M
same,Log10LC50,"OVCAR-5; OVCAR-5 (Ovarian Cancer), LC50: PG=−50",−4.66 log10M
same,Log10TGI50,"OVCAR-5; OVCAR-5 (Ovarian Cancer), TGI: PG=0",−5.14 log10M
same,Log10GI50,"OVCAR-5; Ovarian Cancer, OVCAR-5",<−8.30
same,Log10LC50,"MALME-3M; MALME-3M (Melanoma), LC50: PG=−50",−4.66 log10M
same,Log10TGI50,"MALME-3M; MALME-3M (Melanoma), TGI: PG=0",<−8.30 log10M
same,Log10GI50,"MALME-3M; Melanoma, MALME-3M",<−8.30
same,Log10LC50,"COLO 205; COLO 205 (Colon Cancer), LC50: PG=−50",>−4.30 log10M
same,Log10TGI50,"COLO 205; COLO 205 (Colon Cancer), TGI: PG=0",>−4.30 log10M
same,Log10GI50,"COLO 205; Colon Cancer, COLO 205",<−8.30
same,Log10GI50,"U251; CNS Cancer, U251",<−8.30
same,Log10LC50,"U251; U251 (CNS Cancer), LC50: PG=−50",−4.69 log10M
same,Log10TGI50,"U251; U251 (CNS Cancer), TGI: PG=0",−5.08 log10M
same,Log10TGI50,"NCI-H522; NCI-H522 (Non-Small Cell Lung Cancer), TGI: PG=0",−4.60 log10M
same,Log10LC50,"NCI-H522; NCI-H-522 (Non-Small Cell Lung Cancer), LC50: PG=−50",>−4.30 log10M
same,Log10GI50,"MDA-MB-435; Breast Cancer, MDA-MB-435",−7.62
same,Log10LC50,"MDA-MB-435; MDA-MB-435 (Breast Cancer), LC50: PG=−50",−4.46 log10M
same,Log10TGI50,"MDA-MB-435; MDA-MB-435 (Breast Cancer), TGI: PG=0",−4.94 log10M
same,Log10GI50,"SF-268; CNS Cancer, SF-268",−5.29
same,Log10LC50,"SF-268; SF-268 (CNS Cancer), LC50: PG=−50",−4.31 log10M
same,Log10TGI50,"SF-268; SF-268 (CNS Cancer), TGI: PG=0",−4.80 log10M
same,Log10LC50,"A549/ATCC; A549/ATCC (Non-Small Cell Lung Cancer), LC50: PG=−50",>−4.30 log10M
same,Log10TGI50,"A549/ATCC; A549/ATCC (Non-Small Cell Lung Cancer), TGI: PG=0",−4.61 log10M
same,Log10GI50,"A549/ATCC; Non-Small Cell Lung Cancer, A549/ATCC",−5.98
same,Log10GI50,"SK-MEL-2; Melanoma, SK-MEL-2",−5.12
same,Log10LC50,"SK-MEL-2; SK-MEL2 (Melanoma), LC50: PG=−50",>−4.30 log10M
same,Log10TGI50,"SK-MEL-2; SK-MEL-2 (Melanoma), TGI: PG=0",>−4.30 log10M
same,Log10LC50,"M14; M14 (Melanoma), LC50: PG=−50",>−4.30 log10M
same,Log10TGI50,"M14; M-14 (Melanoma), TGI: PG=0",−4.75 log10M
same,Log10GI50,"M14; Melanoma, M14",−5.81
same,Log10GI50,"HS 578T; Breast Cancer, HS 578T",<−8.30
same,Log10LC50,"HS 578T; HS 578T (Breast Cancer), LC50: PG=−50",−4.35 log10M
same,Log10TGI50,"HS 578T; HS 578T (Breast Cancer), TGI: PG=0",−5.00 log10M
same,Log10GI50,"MCF7; Breast Cancer, MCF7",<−8.30
same,Log10LC50,"MCF7; MCF7 (Breast Cancer), LC50: PG=−50",−4.44 log10M
same,Log10TGI50,"MCF7; MCF7 (Breast Cancer), TGI: PG=0",−5.03 log10M
same,Log10LC50,CCRF-CEM; LC50: PG=−50,>−4.30 log10M
same,Log10TGI50,CCRF-CEM; TGI: PG=0,>−4.30 log10M
same,Log10GI50,"KM12; Colon Cancer, KM12",<−8.30
same,Log10LC50,"KM12; KM12 (Colon Cancer), LC50: PG=−50",−4.37 log10M
same,Log10TGI50,"KM12; KM12 (Colon Cancer), TGI: PG=0",−5.04 log10M
